# In patent publication US20040234592A1, “Dermatological formulations” (priority 2001, published 2004):
# Key:
# [1] = test system: atrophy induced by topical betamethasone; experiment: Betamethasone-induced skin atrophy in mice, concomitant TriAc; format: in vivo; conditions: concomitant treatment with topical betamethasone
# [2] = test system: genes important for skin structure and function; conditions: established models of human skin; cited from earlier work
smiles,measurement,setting,value
"O=C(O)Cc1cc(I)c(Oc2ccc(O)c(I)c2)c(I)c1 [TriAc, [4-(4-Hydroxy-3-iodophenoxy)-3,5-diiodophenyl]acetic acid]",atrophy (reduction of total collagen and of cross-linking between collagen bundles in the dermis),[1],totally prevents the atrophy
same,expression of genes important for skin structure and function,[2],regulate expression of several genes
